# Patent US10874598B2, “Compositions and methods for treating damaged hair” (AVON PRODUCTS, INC., priority 2013, dated 2020)
# Experiment: Tensile load required to break hair fibers (break load)
# Method: A commercial rinse-off conditioner formulation was used as a control vehicle for the study. An active formulation was prepared by adding 1% (w/w) of TDPA to the control vehicle. Three samples of treated hair were prepared: untreated, treatment with the control vehicle, and treatment with the control vehicle plus 1% TDPA. The treatments were applied to hair tresses that had been previously damaged by artificially color with an oxidative dye. The treatments were repeated five times. The overall condition of the hair fibers was determined by measuring the tensile load required to break the fibers and the results of 30 fibers were averaged. […] In stark contrast, the active formula, having 1% TDPA, gave a break load of about 82 gm. This correlates to an improvement in the tensile strength of about 20%. The formulas used in the testing protocol were as follows: […]
smiles,measurement,setting,value
"O=C(O)CCSCCC(=O)O [TDPA, 3,3′-thiodipropionic acid]",improvement in the tensile strength,"active formula with 1% TDPA (about 82 gm), untreated hair about 68 gm, control vehicle about 73 gm",about 20%
same,break load (tensile load required to break the fibers),"active formula: commercial rinse-off conditioner control vehicle plus 1% (w/w) TDPA, treatments repeated five times, results of 30 fibers averaged, FIG. 1",about 82 gm
